Measured values taken from patent US11976083B2, “Inhibitors of peptidylarginine deiminases” (Gilead Sciences, Inc., priority 2020, dated 2024).

What follows are compounds tested against T1, human PAD4 (Homo sapiens, UniProt Q9UM07) (assay: In vitro PAD4 BAEE biochemical assay). Conditions: BAEE substrate 3 mM, 5 nM PAD4, 2 mM calcium chloride; geometric mean of multiple experiments.
T1 construct: human PAD4 (NM_012387), A2-P663, was PCR amplified; His-SUMO (N, cleaved yes); made in house; host or cells: E. coli BL21(DE3)
T1 sequence (Q9UM07 2-663): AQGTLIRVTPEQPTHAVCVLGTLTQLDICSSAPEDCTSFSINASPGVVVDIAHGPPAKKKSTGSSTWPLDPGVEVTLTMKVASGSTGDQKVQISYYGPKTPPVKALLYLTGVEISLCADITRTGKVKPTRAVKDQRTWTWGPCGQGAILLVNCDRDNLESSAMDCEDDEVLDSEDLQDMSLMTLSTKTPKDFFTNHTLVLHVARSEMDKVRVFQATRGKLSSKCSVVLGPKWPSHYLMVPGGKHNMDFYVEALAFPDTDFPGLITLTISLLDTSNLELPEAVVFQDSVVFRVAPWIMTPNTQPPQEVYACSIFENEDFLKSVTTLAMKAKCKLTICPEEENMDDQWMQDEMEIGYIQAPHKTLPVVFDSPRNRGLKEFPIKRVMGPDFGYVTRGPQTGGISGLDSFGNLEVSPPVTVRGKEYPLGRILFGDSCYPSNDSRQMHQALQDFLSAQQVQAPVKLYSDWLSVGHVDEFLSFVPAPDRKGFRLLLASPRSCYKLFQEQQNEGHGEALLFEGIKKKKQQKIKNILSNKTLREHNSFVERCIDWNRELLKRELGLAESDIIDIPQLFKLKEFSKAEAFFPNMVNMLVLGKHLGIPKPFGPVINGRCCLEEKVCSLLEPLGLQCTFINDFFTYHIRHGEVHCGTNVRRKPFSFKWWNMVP
Excerpt: In Vitro PAD4 BAEE Biochemical Assay
The enzymatic activity of human PAD4 was monitored in a biochemical assay in the presence or absence of compounds using the small peptidyl arginine mimic BAEE (Na-Benzoyl-L-arginine ethyl ester hydrochloride) as substrate. PAD4 activity led to deimination of BAEE and release of ammonia. Levels of ammonia were monitored by using an amine coupling reaction and were indicative of PAD4 enzymatic activity.
One hundred nanoliters of test compounds dissolved in DMSO at various concentrations were dispensed into a 384-well black OptiPlate using a Labcyte Echo instrument. Ten microliters of a solution of recombinant PAD4 and calcium chloride diluted in PAD4 assay buffer (50 mM MOPS [3-(N-morpholino) propanesulfonic acid], pH 7.6; 50 mM sodium chloride; 0.05% Tween-20; 2 mM dithiothreitol) was added to the compound-containing plate and was incubated for 30 minutes at 25° C. Ten microliters of a solution of BAEE (Sigma-Aldrich #B4500) diluted in PAD4 assay buffer was then added to start the reaction. Final concentrations were 5 nM PAD4, 2 mM calcium chloride, and 3 mM BAEE. The reaction mixture was incubated at 25° C. for 2 hours and was stopped with the addition of 10 microliters of a solution of 75 mM EDTA (Ethylenediaminetetraacetic acid) in PAD4 assay buffer. Thirty microliters of detection solution (5 mM o-phthalaldehyde, 50 mM MOPS [3-(N-morpholino) propanesulfonic acid], pH 7.6; 50 mM sodium chloride; 0.05% Tween-20; 5 mM dithiothreitol) was then added and the reaction was incubated for 1 hour at 25° C. The level of fluorescent thiol-substituted isoindole resulting from the reaction of ammonia, o-phthalaldehyde, and dithiothreitol was measured on an Envision plate reader (PerkinElmer) with 405 nm excitation and 535 nm emission.
Data were normalized based on maximum inhibition (50 micromolar of the covalent PAD inhibitor BB-Cl-Amidine (Bicker, K. L.; Anguish, L.; Chumanevich, A. A.; Cameron, M. D.; Cui, X.; Witalison, E.; Subramanian, V.; Zhang, X.; Chumanevich, A. P.; Hofseth, L. J.; Coonrod, S. A.; Thompson, P. R. ACS Med. Chem. Lett. 2012, 3, 1081-1085). and no inhibition (DMSO) controls. Least squares curve fittings were performed using a four-parameter variable slope nonlinear regression model. IC50 is defined as the concentration of compound required to inhibit 50% of maximum activity. IC50 values from multiple experiments were averaged by geometric mean and the standard deviation was calculated.

Compound | IC50 [nM]
CCn1c(-c2cc3ccc4nc3n2CCCCC[C@]2(F)C[C@H]2C(=O)N[C@@H]4C)nc2cc(C(=O)N3C[C@H](N)[C@@H]4CC[C@H]3C4)cc(F)c21 [Example 938, (2~{R},5~{S},7~{S})-14-[5-[(1~{S),4~{R},5~{R})-4-amino-2-azabicyclo[3.2.1]octane-2-carbonyl]-1-ethyl-7-fluoro-benzimidazol-2-yl]-7-fluoro-2-methyl-3,13,19-triazatetracyclo[11.5.2.0^ {5,7}.0^{16,20}]icosa-1(19), 14,16(20),17-tetraen-4-one] | 28
C[C@H]1NC(=O)[C@@H]2C[C@H]2CCCC(F)(F)Cn2c(-c3nc4cc(C(=O)N[C@H]5CNCC[C@@H]5F)c(F)c(F)c4n3C3CC3)cc3ccc1nc32 [Example 189, 1-cyclopropyl-2-[(2~{R},5~{R},7~{R})-11,11-difluoro-2-methyl-4-oxo-3,13,19-triazatetracyclo[11.5.2.0^{5,7}.0^{16,20}]icosa-1(19),14,16(20),17-tetraen-14-yl]-6,7-difluoro-~{N}-[(3~{S},4~{S})-4-fluoro-3-piperidyl]benzimidazole-5-carboxamide] | 33
COc1cc(C(=O)N2C[C@H](N)[C@@H]3CC[C@H]2C3)cc2nc(-c3cc4ccc5nc4n3CC(F)(F)CCC[C@@H]3C[C@H]3C(=O)N[C@@H]5C)n(C)c12 [Example 442, (2~{R},5~{R},7~{R})-14-[5-[(1~{S),4~{R},5~{R})-4-amino-2-azabicyclo[3.2.1]octane-2-carbonyl]-7-methoxy-1-methyl-benzimidazol-2-yl]-11,11-difluoro-2-methyl-3,13,19-triazatetracyclo[11.5.2.0^{5,7).0^{16,20}] icosa-1(19),14,16(20),17-tetraen-4-one] | 32
[2H]C1([2H])[C@H](N)[C@@H]2CC[C@@H](C2)N1C(=O)c1cc(OC)c2c(c1)nc(-c1cc3ccc4nc3n1CCCCCc1ccccc1C(=O)N[C@@H]4C)n2C [Example 770, (2~{R})-17-[5-[(1~{S},4~{R}, 5~{R})-4-amino-3,3-dideuterio-2-azabicyclo[3.2.1]octane-2-carbonyl]-7-methoxy-1-methyl-benzimidazol-2-yl]-2-methyl-3,16,22-triazatetracyclo[14.5.2.0^ {5,10).0^{19,23}]tricosa-1(22),5(10),6,8,17,19(23), 20-heptaen-4-one] | 5
COc1cc(C(=O)N2C[C@H](N)C[C@H](C(F)F)C2)cc2nc(-c3cc4ccc5nc4n3CCCCC[C@@H]3C[C@H]3C(=O)N[C@@H]5C)n(C)c12 [Example 631, (2~{R},5~{R},7~{R})-14-[5-[(3~{R},5~{S})-3-amino-5-(difluoromethyl)piperidine-1-carbonyl]-7-methoxy-1-methyl-benzimidazol-2-yl]-2-methyl-3,13,19-triazatetracyclo[11.5.2.0^ {5,7}.0^{16,20}]icosa-1(19),14,16(20),17-tetraen-4-one] | 211
C[C@H]1NC(=O)[C@H]2[C@H](CCCCCn3c(-c4nc5cc(C(=O)N6C[C@H](N)[C@@H]7CC[C@H]6C7)cc(F)c5n4C4CC4)cc4ccc1nc43)C2(F)F [Example 775, (2~{R},5~{R},7~{S})-14-[5-[(1~{S},4~{R},5~{R})-4-amino-2-azabicyclo[3.2.1]octane-2-carbonyl]-1-cyclopropyl-7-fluoro-benzimidazol-2-yl]-6,6-difluoro-2-methyl-3,13,19-triazatetracyclo[11.5.2.0^ {5,7).0^{16,20}]icosa-1(19),14,16(20),17-tetraen-4-one] | 29
COc1cc(C(=O)N2[C@H]3CC[C@@H]2[C@H](N)C3)cc2nc(-c3cc4ccc5nc4n3C[C@@H]3C[C@H]3COCCC(=O)N[C@@H]5C)c(C)n12 [Example 322, (3~{R},5~{R},12~{R})-18-[7-[(1~{R},2~{R},4~{S})-2-amino-7-azabicyclo[2.2.1]heptane-7-carbonyl]-5-methoxy-3-methyl-imidazo[1,2-a]pyridin-2-yl]-12-methyl-7-oxa-1,11,20-triazatetracyclo[11.5.2.0^{3,5}.0^{16,19}] icosa-13(20),14,16(19),17-tetraen-10-one] | 15
COc1cc(C(=O)N2CCC[C@@H](N)C2)cn2nc(-c3cc4ccc5nc4n3CCCCCCC(C)(C)C(=O)N[C@@H]5C)c(C)c12 [Example 27, (11~{R})-17-[6-[(3~{R})-3-aminopiperidine-1-carbonyl]-4-methoxy-3-methyl-pyrazolo[1,5-a]pyridin-2-yl]-8,8,11-trimethyl-1,10,19-triazatricyclo[10.5.2.0^{15,18}]nonadeca-12(19),13,15(18),16-tetraen-9-one] | 201
COc1cc(C(=O)N2C[C@H]3CC[C@@H]2[C@@H]3N)cc2nc(-c3cc4ccc5nc4n3CCCCCc3nccnc3C(=O)N[C@@H]5C)n(C)c12 [Example 604, (2~{R})-17-[5-[(1~{R},4~ {R},7~{R})-7-amino-2-azabicyclo[2.2.1]heptane-2-carbonyl]-7-methoxy-1-methyl-benzimidazol-2-yl]-2-methyl-3,6,9,16,22-pentazatetracyclo[14.5.2.0^ {5,10}.0^{19,23}]tricosa-1(21),5(10),6,8,17,19,22-heptaen-4-one] | 86

Continued by falling IC50, values first:

IC50 [nM] | Compound
548 | COc1cc(C(=O)N2CCC[C@@H](N)C2)cc2nc(-c3cc4ccc5nc4n3CCCCCCNC(=O)CO5)c(C)n12 [Example 293, 17-[7-[(3˜{R})-3-aminopiperidine-1-carbonyl]-5-methoxy-3-methyl-imidazo[1,2-a]pyridin-2-yl]-11-oxa-1,8,19-triazatricyclo[10.5.2.0^{15,18}]nonadeca-12(19),13,15(18),16-tetraen-9-one]
82 | COc1cc(C(=O)N[C@H]2CNCC[C@@H]2F)cc2nc(-c3cc4ccc5nc4n3CCCCCc3nccnc3C(=O)N[C@@H]5C)n(C)c12 [Example 241, ~{N}-[(3~{S},4~{S})-4-fluoro-3-piperidyl]-7-methoxy-1-methyl-2-[(2~{R})-2-methyl-4-oxo-3,6,9,16,22-pentazatetracyclo[14.5.2.0^{5,10}.0^{19, 23}]tricosa-1(21),5(10),6,8,17,19,22-heptaen-17-yl]benzimidazole-5-carboxamide]
58 | CO[C@@H]1CCN(C(=O)c2cc(F)c3c(c2)nc(-c2cc4ccc5nc4n2CC(F)(F)/C=C/C[C@@H]2C[C@H]2C(=O)N[C@@H]5C)n3C2CC2)C[C@@H]1N [Example 742, (2~{R},5~{R},7~{R},9~{E})-14-[5-[(3~{S},4~{R})-3-amino-4-methoxy-piperidine-1-carbonyl]-1-cyclopropyl-7-fluoro-benzimidazol-2-yl]-11,11-difluoro-2-methyl-3,13,19-triazatetracyclo[11.5.2.0^ {5,7}.0^{16,20}]icosa-1(19), 9,14,16(20),17-pentaen-4-one]
37 | COc1cc(C(=O)N2CC[C@@H](OC)[C@@H](N)C2)cc2nc(-c3cc4ccc5nc4n3CC(F)(F)CCC[C@@H]3C[C@H]3C(=O)N(CC3CC3)[C@@H]5C)n(C)c12 [Example 868, (2~{R},5~{R},7~{R})-14-[5-[(3~{S},4~{R})-3-amino-4-methoxy-piperidine-1-carbonyl]-7-methoxy-1-methyl-benzimidazol-2-yl]-3-(cyclopropylmethyl)-11,11-difluoro-2-methyl-3,13,19-triazatetracyclo[11.5.2.0^ {5,7}.0^{16,20}]icosa-1(19), 14,16(20),17-tetraen-4-one]
31 | C[C@H]1NC(=O)[C@H]2[C@@H](CCCC(F)(F)Cn3c(-c4nc5cc(C(=O)N[C@H]6CNCC[C@@H]6F)c(F)cc5n4C4CC4)cc4ccc1nc43)C2(F)F [Example 389, 1-cyclopropyl-6-fluoro-~{N}-[(3~{S},4~{S})-4-fluoro-3-piperidyl]-2-[(2~{R},5~{R},7~{R})-6,6,11,11-tetrafluoro-2-methyl-4-oxo-3,13,19-triazatetracyclo[11.5.2.0^{5,7}.0^{16,20}]icosa-1(19),14,16(20),17-tetraen-14-yl]benzimidazole-5-carboxamide]
14 | COc1cc(C(=O)N2[C@H]3CC[C@@H]2[C@H](N)C3)cc2nc(-c3cc4ccc5nc4n3CCCCCCCC(=O)N[C@@H]5C)c(C)n12 [Example 316, (11˜{R})-17-[7-[(1˜{R},2˜{R},4˜{S})-2-amino-7-azabicyclo[2.2.1]heptane-7-carbonyl]-5-methoxy-3-methyl-imidazo[1,2-a]pyridin-2-yl]-11-methyl-1,10,19-triazatricyclo[10.5.2.0^{15,18}]nonadeca-12(19),13,15(18),16-tetraen-9-one]
